Assays:
Assay in all cases: differential drug sensitivity score (dDSS) relative to sarcoma reference cohort mean DSS (DSS units (0-100 scale difference)); higher = more selective sensitivity than reference sarcomas
Settings in all cases: exposure time: 72 h; concentration range: 10-10000 nM
[1] = test system: ES-ZH009 (patient-derived Ewing sarcoma tumoroid)
Description: (§1)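 Drug response profiling of patient-derived Ewing sarcoma and CIC::DUX4 sarcoma tumoroid models (or cells tested directly after isolation from the tumor, 'direct'). The DSS is the normalised AUC (0-100); dDSS is the sample DSS minus the mean DSS of a 34-sarcoma reference cohort profiled in the same lab.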

[2] = test system: ES-ZH008 (patient-derived Ewing sarcoma tumoroid)
Description: as §1

[3] = test system: CDS-ZH002 (patient-derived CIC-DUX4 sarcoma tumoroid)
Description: as §1

[4] = test system: CDS-ZH002 direct (CIC-DUX4 sarcoma cells right after isolation)
Description: as §1

[5] = test system: ES-ZH004 (patient-derived Ewing sarcoma tumoroid)
Description: as §1

[6] = test system: ES-ZH001 (patient-derived Ewing sarcoma tumoroid)
Description: as §1

[7] = test system: ES-ZH007 (patient-derived Ewing sarcoma tumoroid)
Description: as §1

[8] = test system: ES-ZH016 direct (Ewing sarcoma cells right after isolation)
Description: as §1

[9] = test system: CDS-ZH003 (patient-derived CIC-DUX4 sarcoma tumoroid)
Description: as §1

[10] = test system: CDS-ZH001 (patient-derived CIC-DUX4 sarcoma tumoroid)
Description: as §1

[11] = test system: ES-ZH016 (patient-derived Ewing sarcoma tumoroid)
Description: as §1

[12] = test system: ES-ZH002 (patient-derived Ewing sarcoma tumoroid)
Description: as §1

[13] = test system: CDS-ZH001-2 (patient-derived CIC-DUX4 sarcoma tumoroid)
Description: as §1

Row | Compound | differential drug sensitivity score [1] | differential drug sensitivity score [2] | differential drug sensitivity score [3] | differential drug sensitivity score [4] | differential drug sensitivity score [5] | differential drug sensitivity score [6] | differential drug sensitivity score [7] | differential drug sensitivity score [8] | differential drug sensitivity score [9] | differential drug sensitivity score [10] | differential drug sensitivity score [11] | differential drug sensitivity score [12] | differential drug sensitivity score [13]
1 | CNC(=O)c1cc(Oc2ccc(NC(=O)Nc3ccc(Cl)c(C(F)(F)F)c3)cc2)ccn1 [Sorafenib] | 0.2 | -1.2 | -1.2 | -0.3 | -1.2 | -0.8 | -1.2 | -1.2 | -1.8 | -0.5 | -1.2 | -1.2 | -1
2 | C[C@@H]1C[C@H]2[C@@H]3CCC4=CC(=O)C=C[C@]4(C)[C@@]3(F)[C@@H](O)C[C@]2(C)[C@@]1(O)C(=O)CO [Dexamethasone] | -0.5 | -0.5 | -0.5 | 0.6 | -0.5 | -0.5 | -0.5 | -0.5 | -0.5 | -0.5 | -0.5 | -0.5 | -0.5
3 | CCS(=O)(=O)N1CCC([C@@H](C)n2c(C)c(C(=O)NCc3c(OC)cc(C)[nH]c3=O)c3ccccc32)CC1 [CPI169] | -0.3 | -0.4 | -0.4 | -0.4 | -0.4 | -0.4 | -0.4 | 3.3 | -0.3 | -0.4 | -0.4 | -0.4 | -0.4
4 | CC(=O)O[C@H]1C(=O)[C@@]2(C)[C@H]([C@H](OC(=O)c3ccccc3)[C@]3(O)C[C@H](OC(=O)[C@H](O)[C@@H](NC(=O)c4ccccc4)c4ccccc4)C(C)=C1C3(C)C)[C@]1(OC(C)=O)CO[C@@H]1C[C@@H]2O [Paclitaxel] | 19.6 | 15.7 | -2.2 | -5.6 | 8.9 | 24.6 | 16.2 | 14 | -8 | 7.6 | 16.3 | 23 | 4.1
5 | CO/N=C1\C[C@]2(C[C@@H]3C[C@@H](C/C=C(\C)C[C@@H](C)/C=C/C=C4\CO[C@@H]5[C@H](O)C(C)=C[C@@H](C(=O)O3)[C@]45O)O2)O[C@H](/C(C)=C/C(C)C)[C@H]1C [Moxidectin] | 3.8 | -1.8 | -3.7 | 0 | 0.9 | 0.2 | -0.2 | 0 | -4.8 | 0.1 | -0.4 | 3.7 | -5
6 | CO[C@H]1C[C@@H]2CC[C@@H](C)[C@@](O)(O2)C(=O)C(=O)N2CCCC[C@H]2C(=O)O[C@H]([C@H](C)C[C@@H]2CC[C@@H](OC(=O)C(C)(CO)CO)[C@H](OC)C2)CC(=O)[C@H](C)/C=C(\C)[C@@H](O)[C@@H](OC)C(=O)[C@H](C)C[C@H](C)/C=C/C=C/C=C/1C [Temsirolimus] | 11.1 | 3.1 | -7 | 4.8 | 8.3 | 6.2 | 5.9 | -6.2 | 2.1 | 0.8 | -3 | 15.8 | 4
7 | Cn1ncc(Cl)c1-c1cc(C(=O)N[C@H](CN)Cc2cccc(F)c2)sc1Cl [Afuresertib] | 3.6 | 4.6 | -4.7 | -5.5 | 4.1 | -4.1 | 2.4 | -3.4 | 1.1 | 2.8 | -0.3 | 5.8 | 0.3
8 | Cc1ccc(NC(=O)c2ccc(CN3CCN(C)CC3)cc2)cc1Nc1nccc(-c2cccnc2)n1 [Imatinib] | -3.3 | 0.1 | -1.5 | -1.3 | 0.7 | -2.9 | -1.3 | 1.6 | 12.4 | 0.4 | -3.3 | 3.2 | -0.8
9 | O=NN(CCCl)C(=O)NCCCl [Carmustine] | -1.3 | 1.4 | -1.2 | -1.2 | 1.6 | 2.6 | -1.3 | 2.1 | -1.3 | -1.3 | 1.1 | 7.3 | -0.5
10 | CCN1CCN(Cc2ccc(-c3cc4c(N[C@H](C)c5ccccc5)ncnc4[nH]3)cc2)CC1 [AEE788] | 1.6 | -0.1 | -3 | -1.2 | -1.1 | 3.6 | -4 | -6.1 | 5.8 | -0.7 | -4.1 | 0.3 | -0.2
11 | S=c1[nH]cnc2nc[nH]c12 [Mercaptopurine] | 7.4 | -1.6 | -1.3 | -1.8 | -4.2 | 0.9 | -0.4 | 4.9 | -5 | 3.8 | 2.9 | 0.3 | 12
12 | CCCC(CCC)C(=O)O [Valproic acid] | 1.7 | 1.7 | -2.5 | -1.9 | 8.2 | 2.8 | 0.9 | 6.5 | -1.3 | -2.5 | -2.5 | 4.4 | -0.9
13 | COc1cc(OC)cc(N(CCNC(C)C)c2ccc3ncc(-c4cnn(C)c4)nc3c2)c1 [Erdafitinib] | -1.7 | 10.1 | -4 | -4.5 | 5 | -2.3 | -2.5 | 12.1 | -8 | -1.4 | -3.7 | 7.8 | -0.4
14 | Cn1nccc1Nc1nccc(-c2ccn([C@H](CO)c3ccc(Cl)c(F)c3)c(=O)c2)n1 [Ravoxertinib] | 1.2 | -5 | -5 | -2.3 | -5 | -5 | -0.3 | -5 | -5 | -5 | -2 | -0.4 | -3.7
